#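 All cell lines were grown in 96-well plates and treated with compound for 48 hours. TGI denotes the concentration required for complete inhibition of growth.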 Where a SMILES comes first, the peptide text is derived from it. [ ]: non-standard residue; d: D form. The star is where a group is joined. ξ: configuration not given here. NMeF = CN[CH](Cc1ccccc1)C(=O)O; ξNMe2Val = CC(C)C(C(=O)*)N(C)C; NMeV = CN[CH](C(=O)O)C(C)C; ξNMeV = CNC(C(=O)O)C(C)C; Boc = CC(C)(C)OC(=O)*; OBn = c1ccc(CO*)cc1; OtBu = CC(C)(C)O*
# How the values were obtained:
# Test in all cases: NCI tumour cell line growth inhibition, 48 h
# DLD-1 colon = tested on: DLD-1 colon
# DMS 114 small cell lung = tested on: DMS 114 small cell lung
# HOP-18 NSCLC = tested on: HOP-18 NSCLC
# LXFL 529 NSCLC = tested on: LXFL 529 NSCLC
# XF 498 CNS = tested on: XF 498 CNS
# RXF-631 renal = tested on: RXF-631 renal
# P388 leukemia = tested on: P388 leukemia
# P388/ADR leukemia = tested on: P388/ADR leukemia
# SN12K1 renal = tested on: SN12K1 renal
SMILES,TGI (DLD-1 colon),TGI (DMS 114 small cell lung),TGI (HOP-18 NSCLC),TGI (LXFL 529 NSCLC),TGI (XF 498 CNS),TGI (RXF-631 renal),TGI (P388 leukemia),TGI (P388/ADR leukemia),TGI (SN12K1 renal)
CCCCCCCCCCCC[N+]12CC[N+](C)(CC1)CC2,> 100 µM,44.6 µM,> 100 µM,> 100 µM,80 µM,–,–,–,–
NC(=O)/N=C/c1c(O)c2ccccc2oc1=O,> 100 µM,> 100 µM,–,> 100 µM,–,–,–,–,–
CC#COS(=O)(=O)c1ccc(C)cc1,> 100 µM,> 100 µM,–,> 100 µM,–,–,–,–,–
Cc1ccc(NC(=O)C2C3CCC(O3)C2C(=O)O)cc1 (configuration not stated),96.9 µM,> 59.8 µM,> 100 µM,> 74.6 µM,> 77.8 µM,> 100 µM,–,–,–
CC(=O)OCC1OC(N=[N+]=[N-])C(OC(C)=O)C(OC(C)=O)C1OC1OC(COC(C)=O)C(OC(C)=O)C(OC(C)=O)C1OC(C)=O (configuration not stated),–,> 100 µM,–,> 100 µM,> 100 µM,> 100 µM,–,–,–
COc1ccc([C@H]2CC3C(=O)N(c4ccc(OC)cc4)C(=O)C3c3[nH]c4ccccc4c32)cc1 (some centres not stated),> 100 µM,> 100 µM,–,> 100 µM,95.9 µM,–,–,–,–
CSC(C1c2ccccc2N(C)c2[nH]c(=O)n(C)c(=O)c21)S(=O)(=O)c1ccc(C)cc1 (configuration not stated),> 100 µM,> 100 µM,> 100 µM,> 100 µM,> 100 µM,–,–,–,–
Brc1ccc(-c2cc3c(cc2C2SCCS2)OCO3)cc1,> 100 µM,> 100 µM,> 100 µM,> 100 µM,> 100 µM,–,–,–,–
COc1ccc(C2=Nc3ccccc3N=C(SC)C2)cc1,> 100 µM,> 100 µM,> 100 µM,> 100 µM,> 100 µM,> 100 µM,–,–,–
COc1ccc(NC(=O)C(=O)Cc2ccc([N+](=O)[O-])c([N+](=O)[O-])c2CC(=O)C(=O)Nc2ccc(OC)cc2OC)c(OC)c1,> 100 µM,> 100 µM,> 100 µM,> 100 µM,–,> 100 µM,–,–,–
CC(C)C(C(=O)N(C)C(Cc1ccccc1)C(=O)N(C)C(C(=O)N(C)C(C(=O)N1CCCC1C(=O)OC(C)(C)C)C(C)C)C(C)C)N(C)C (configuration not stated) (ξNMe2Val-[NMeF][NMeV][NMeV]P-OtBu; configuration not given here),–,> 100 µM,–,> 100 µM,86.1 µM,–,–,–,–
Cc1nn2c(c1C#N)NNc1c-2sc(=N)nnc1=O,> 100 µM,–,> 100 µM,> 100 µM,–,–,–,–,–
CN(C)CCC[N+]1=Nc2cccc3cccc(c23)N1,35.8 µM,> 100 µM,> 100 µM,> 100 µM,> 100 µM,> 100 µM,–,–,–
COC(=O)C(CCC1(C)OCCO1)=[N+]=[N-],> 100 µM,> 100 µM,> 100 µM,> 100 µM,> 100 µM,> 100 µM,–,–,–
CC(C)C(C(=O)N(C)[C@H](C(=O)N1CCC[C@H]1C(=O)N(C)[C@@H](Cc1ccccc1)C(=O)OCc1ccccc1)C(C)C)N(C)C(=O)[C@@H](NC(=O)OC(C)(C)C)C(C)C (some centres not stated) (Boc-V[ξNMeV][NMeV]P[NMeF]-OBn),> 31.6 µM,> 31.6 µM,> 100 µM,> 100 µM,> 31.6 µM,–,–,–,–
O=S(O)c1cc(Cl)c(O)c(Cl)c1,> 100 µM,> 100 µM,–,> 100 µM,> 100 µM,> 100 µM,–,–,–
COc1cc(O)c(Cc2ccccc2O)c(O)c1C(=O)CCc1ccccc1,30.7 µM,14.5 µM,4.53 µM,–,7.76 µM,–,13.5 µM,14 µM,19.5 µM
N#COc1ccc(Oc2ccc(OC#N)cc2)cc1,> 100 µM,92.7 µM,> 100 µM,> 100 µM,> 100 µM,> 100 µM,–,–,–
CC1OC(O[C@@H]2C=C3CC[C@@H]4[C@H](CC[C@]5(C)[C@@H](c6ccc(=O)oc6)CC[C@]45O)[C@@]3(C)CC2)C(O)C(OC2OC(CO)C(O)C(O)C2O)C1O (some centres not stated),0.0253 µM,–,–,–,0.0276 µM,–,115 µM,142 µM,0.025 µM

# — PubChem BioAssay (NCI)
